We go through 31 molecules from patent US20120264735A1 (priority 2009, published 2012).

T1 sequence (P08581 25-1390): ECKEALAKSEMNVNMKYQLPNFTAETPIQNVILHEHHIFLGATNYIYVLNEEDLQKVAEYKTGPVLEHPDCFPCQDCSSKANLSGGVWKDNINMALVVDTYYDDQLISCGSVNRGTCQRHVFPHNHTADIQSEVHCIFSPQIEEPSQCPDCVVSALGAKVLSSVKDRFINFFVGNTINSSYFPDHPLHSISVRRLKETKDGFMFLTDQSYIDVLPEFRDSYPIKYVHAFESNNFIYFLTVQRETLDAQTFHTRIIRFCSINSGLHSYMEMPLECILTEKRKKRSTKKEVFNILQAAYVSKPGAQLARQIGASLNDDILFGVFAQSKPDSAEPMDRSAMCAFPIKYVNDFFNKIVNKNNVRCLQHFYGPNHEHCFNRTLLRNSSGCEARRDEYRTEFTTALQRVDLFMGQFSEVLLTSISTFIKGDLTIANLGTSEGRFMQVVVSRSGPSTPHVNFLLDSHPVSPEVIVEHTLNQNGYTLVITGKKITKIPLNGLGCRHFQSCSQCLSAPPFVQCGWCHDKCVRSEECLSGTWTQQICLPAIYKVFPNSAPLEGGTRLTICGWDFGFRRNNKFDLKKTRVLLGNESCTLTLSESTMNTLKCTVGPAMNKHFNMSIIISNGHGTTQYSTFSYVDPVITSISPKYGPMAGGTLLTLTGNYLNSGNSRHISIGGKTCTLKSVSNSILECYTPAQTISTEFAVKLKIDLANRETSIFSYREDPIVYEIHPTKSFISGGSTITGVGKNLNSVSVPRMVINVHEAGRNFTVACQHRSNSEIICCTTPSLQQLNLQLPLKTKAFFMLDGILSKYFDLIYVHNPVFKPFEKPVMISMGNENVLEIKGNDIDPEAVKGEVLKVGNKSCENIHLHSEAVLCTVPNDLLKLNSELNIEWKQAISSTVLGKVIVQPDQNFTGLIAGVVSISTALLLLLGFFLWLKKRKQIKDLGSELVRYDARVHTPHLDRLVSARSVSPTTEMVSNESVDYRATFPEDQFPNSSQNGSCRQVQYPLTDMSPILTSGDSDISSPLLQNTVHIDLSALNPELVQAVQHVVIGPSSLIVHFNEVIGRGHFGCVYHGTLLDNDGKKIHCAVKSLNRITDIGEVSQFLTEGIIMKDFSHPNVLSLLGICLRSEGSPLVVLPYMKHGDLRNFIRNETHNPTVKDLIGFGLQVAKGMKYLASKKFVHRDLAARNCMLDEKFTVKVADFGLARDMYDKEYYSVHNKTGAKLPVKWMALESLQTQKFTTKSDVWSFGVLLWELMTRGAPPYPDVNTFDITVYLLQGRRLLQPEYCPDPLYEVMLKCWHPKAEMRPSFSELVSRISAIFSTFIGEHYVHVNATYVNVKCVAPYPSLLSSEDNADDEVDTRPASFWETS

This assay addresses T1, c-Met kinase (recombinant c-Met) (Homo sapiens, UniProt P08581).
T1 construct: 0.27 nM recombinant c-Met
Description: In vitro kinase assay I (homogeneous time-resolved fluorescence tyrosine kinase assay). Format: biochemical. The essentials:
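Biotinylated peptide (0.5 μM) phosphorylated by 0.2 nM recombinant c-Met with 50 μM MgATP, 60 min at room temperature, pH 7.4, 5% DMSO. EDTA stop; HTRF read with Eu-anti-phosphotyrosine antibody and streptavidin-APC. IC50 from 4-parameter logistic fit.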
Turning to `CC(c1cccc(-c2ncc(F)c(C3CC3)n2)c1)c1nn(-c2cnn(C)c2)ccc1=O` (single isomer, unassigned) [Example 692, 3-{(1R or S)-1-[3-(4-cyclopropyl-5-fluoropyrimidin-2-yl)phenyl]ethyl}-1-(1-methyl-1H-pyrazol-4-yl)pyridazin-4(1H)-one], the IC50 was < 100 nM. Under `CC(C)c1nc(COc2cnc(-c3cccc(Cc4nn(-c5cnn(C)c5)ccc4=O)c3)nc2)no1` [Example 283, 3-[3-(5-{[5-(1-methylethyl)-1,2,4-oxadiazol-3-yl]methoxy}pyrimidin-2-yl)benzyl]-1-(1-methyl-1H-pyrazol-4-yl)pyridazin-4(1H)-one] stands < 100 nM; under `CCCOC(=O)Nc1cccc(Cc2nn(-c3cnn(C4CCOC4)c3)ccc2=O)c1` (racemic) [Example 98, rac-propyl [3-({4-oxo-1-[1-(tetrahydrofuran-3-yl)-1H-pyrazol-4-yl]-1,4-dihydropyridazin-3-yl}methyl)phenyl]carbamate], < 100 nM; under `Cc1nnc(-c2cccc(Cc3nn(-c4cnn(C)c4)ccc3=O)c2)s1` [Example 75, 1-(1-methyl-1H-pyrazol-4-yl)-3-[3-(5-methyl-1,3,4-thiadiazol-2-yl)benzyl]pyridazin-4(1H)-one], 1000 to 3000 nM. To `CCn1cc(-n2ccc(=O)c(Cc3cccc(-c4ncc(OCCOC)cn4)c3)n2)cn1` [Example 151, 1-(1-ethyl-1H-pyrazol-4-yl)-3-{3-[5-(2-methoxyethoxy)pyrimidin-2-yl]benzyl}pyridazin-4(1H)-one] belongs < 100 nM. Take `COCCN(C)c1cnc(-c2cccc(Cc3nn(-c4cnn(C)c4)ccc3=O)c2)nc1` [compound 457, 3-(3-{5-[(2-methoxyethyl) (methyl)amino]pyrimidin-2-yl}benzyl)-1-(1-methyl-1H-pyrazol-4-yl)pyridazin-4(1H)-one]: the IC50 is < 100 nM. Under `CCOC(=O)Nc1cccc(Cc2nn(-c3cnn(C4CCOC4)c3)ccc2=O)c1` (racemic) [Example 97, rac-ethyl [3-({4-oxo-1-[1-(tetrahydrofuran-3-yl)-1H-pyrazol-4-yl]-1,4-dihydropyridazin-3-yl}methyl)phenyl]carbamate] stands < 100 nM; under `COCCOC(=O)Nc1cccc(Cc2nn(-c3ccc(F)c(F)c3)ccc2=O)c1` [Example 506, 2-methoxyethyl (3-{[1-(3,4-difluorophenyl)-4-oxo-1,4-dihydropyridazin-3-yl]methyl}phenyl)carbamate], < 100 nM; under `C/C=C/c1cnc(-c2cccc(Cc3nn(-c4cnn(C)c4)ccc3=O)c2)nc1` [Example 400, 1-(1-methyl-1H-pyrazol-4-yl)-3-(3-{5-[(1E)-prop-1-en-1-yl]pyrimidin-2-yl}benzyl)pyridazin-4(1H)-one], < 100 nM. `CCn1cc(-n2ccc(=O)c(C(C)c3cccc(-c4ncc(OC5CN(C(=O)OC(C)(C)C)C5)cn4)c3)n2)cn1` (single isomer, unassigned) [Example 292, tert-butyl 3-{[2-(3-{(1R or S)-1-[1-(1-ethyl-1H-pyrazol-4-yl)-4-oxo-1,4-dihydropyridazin-3-yl]ethyl}phenyl)pyrimidin-5-yl]oxy}azetidine-1-carboxylate]: the IC50 was < 100 nM.

`Cn1cc(-n2ccc(=O)c(Cc3cccc(NC(=O)OCC4CCCCC4)c3)n2)cn1` [Example 540, cyclohexylmethyl (3-{[1-(1-methyl-1H-pyrazol-4-yl)-4-oxo-1,4-dihydropyridazin-3-yl]methyl}phenyl)carbamate]: the half-maximal inhibitory concentration (IC50) is < 100 nM. For `COCCOC(=O)Nc1cccc(Cc2nn(-c3cccc(C#N)c3)ccc2=O)c1` [Example 502, 2-methoxyethyl (3-{[1-(3-cyanophenyl)-4-oxo-1,4-dihydropyridazin-3-yl]methyl}phenyl)carbamate], the IC50 is < 100 nM. To `Cn1cc(-n2ccc(=O)c(Cc3cccc(-c4ncc(C(=O)NCC5CCOC5)cn4)c3)n2)cn1` (racemic) [Example 475, rac-2-(3-{[1-(1-methyl-1H-pyrazol-4-yl) 4-oxo-1,4-dihydro-pyridazin-3-yl]methyl}phenyl)-N-(tetrahydro-furan-3-ylmethyl)pyrimidine-5-carboxamide] belongs < 100 nM; to `COC(=O)Nc1cccc(Cc2nn(-c3cnn(C)c3)ccc2=O)c1` [Example 497, Methyl(3-{[1-(1-methyl-1H-pyrazol-4-yl)-4-oxo-1,4-dihydropyridazin-3-yl]methyl}phenyl)carbamate], < 100 nM; to `Cn1cc(-n2ccc(=O)c(Cc3cccc(-c4ncc(C(=O)NCC(F)(F)F)cn4)c3)n2)cn1` [Example 481, 2-(3-{[1-(1-methyl-1H-pyrazol-4-yl)-4-oxo-1,4-dihydro-pyridazin-3-yl]methyl}phenyl)-N-(2,2,2-trifluoroethyl)pyrimidine-5-carboxamide], < 100 nM.

In the case of `CCOC(=O)Nc1cccc(Cc2nn(-c3cccc(C#N)c3)ccc2=O)c1` [Example 135, ethyl (3-{[1-(3-cyanophenyl)-4-oxo-1,4-dihydropyridazin-3-yl]methyl}phenyl)carbamate], the IC50 is < 100 nM. Regarding `COCC1CCCN(c2cnc(-c3cccc(Cc4nn(-c5cnn(C)c5)ccc4=O)c3)nc2)C1` (racemic) [Example 449, rac-3-(3-{5-[3-(methoxymethyl)piperidin-1-yl]pyrimidin-2-yl}benzyl)-1-(1-methyl-1H-pyrazol-4-yl)pyridazin-4(1H)-one], the IC50 was < 100 nM. With `Cn1cc(-n2ccc(=O)c(Cc3cccc(-c4ncc(C(=O)NCCCN5CCOCC5)cn4)c3)n2)cn1` [Example 482, 2-(3-{[1-(1-methyl-1H-pyrazol-4-yl)-4-oxo-1,4-dihydro-pyridazin-3-yl]methyl}phenyl)-N-(3-morpholin-4-ylpropyl)pyrimidine-5-carboxamide], the concentration for half-maximal inhibition (IC50) was < 100 nM.

On to `CCn1cc(-n2ccc(=O)c(Cc3cccc(-c4ncc(OCC5CCO5)cn4)c3)n2)cn1` (racemic) [Example 308, rac-1-(1-ethyl-1H-pyrazol-4-yl)-3-{3-[5-(oxetan-2-ylmethoxy)pyrimidin-2-yl]benzyl}pyridazin-4(1H)-one], for which the IC50 is < 100 nM. Under `Cn1cc(-n2ccc(=O)c(Cc3ccc4oc(=O)[nH]c4c3)n2)cn1` [Example 24, 5-{[1-(1-methyl-1H-pyrazol-4-yl)-4-oxo-1,4-dihydropyridazin-3-yl]methyl}-1,3-benzoxazol-2(3H)-one] stands 1000 to 3000 nM. In the case of `CCOc1cnc(-c2cccc(Cc3nn(-c4ccc(Cl)c(F)c4)ccc3=O)c2)nc1` [Example 152, 1-(4-chloro-3-fluorophenyl)-3-[3-(5-ethoxypyrimidin-2-yl)benzyl]pyridazin-4(1H)-one], the IC50 is < 100 nM. To `CCCc1nc(-c2cccc(Cc3nn(-c4cnn(C)c4)ccc3=O)c2)no1` [Example 740, 1-(1-methyl-1H-pyrazol-4-yl)-3-[3-(5-propyl-1,2,4-oxadiazol-3-yl)benzyl]pyridazin-4(1H)-one] belongs < 100 nM; to `Cn1cc(-n2ccc(=O)c(Cc3cccc(NC(=O)OCCN4CCOCC4=O)c3)n2)cn1` [Example 535, 2-(3-oxomorpholin-4-yl)ethyl (3-{[1-(1-methyl-1H-pyrazol-4-yl)-4-oxo-1,4-dihydropyridazin-3-yl]methyl}phenyl)carbamate], < 100 nM; to `CN1CCN(CCOC(=O)Nc2cccc(Cc3nn(-c4cc(F)c(F)c(F)c4)ccc3=O)c2)CC1` [Example 516, 2-(4-methylpiperazin-1-yl)ethyl (3-{[4-oxo-1-(3,4,5-trifluorophenyl)-1,4-dihydropyridazin-3-yl]methyl}phenyl)carbamate], < 100 nM.

For `COC(C)(C)c1cnc(-c2cccc(Cc3nn(-c4cnn(C)c4)ccc3=O)c2)nc1` [Example 168, 3-{3-[5-(1-methoxy-1-methylethyl)pyrimidin-2-yl]benzyl}-1-(1-methyl-1H-pyrazol-4-yl)pyridazin-4(1H)-one], the IC50 lay within 100 to 1000 nM. As to `CC(c1cccc(-c2nccc(C(F)F)n2)c1)c1nn(-c2cnn(C)c2)ccc1=O` (single isomer, unassigned) [Example 690, 3-[(1R or S)-1-{3-[4-(Difluoromethyl)pyrimidin-2-yl]phenyl}ethyl]-1-(1-methyl-1H-pyrazol-4-yl)pyridazin-4(1H)-one], the IC50 is < 100 nM. Under `Cn1cc(-n2ccc(=O)c(Cc3cccc(NC(=O)OCC4(C)COC4)c3)n2)cn1` [Example 543, (3-methyloxetan-3-yl)methyl (3-{[1-(1-methyl-1H-pyrazol-4-yl)-4-oxo-1,4-dihydropyridazin-3-yl]methyl}phenyl)carbamate] stands < 100 nM; under `CCOCCOc1cnc(-c2cccc(Cc3nn(-c4cc(F)c(F)c(F)c4)ccc3=O)c2)nc1` [Example 325, 3-{3-[5-(2-ethoxyethoxy)pyrimidin-2-yl]benzyl}-1-(3,4,5-trifluorophenyl)pyridazin-4(1H)-one], < 100 nM; under `O=C(Nc1cccc(Cc2nn(-c3cc(F)cc(F)c3)ccc2=O)c1)OCCCN1CCOCC1` [Example 521, 3-morpholin-4-ylpropyl (3-{[1-(3,5-difluorophenyl)-4-oxo-1,4-dihydropyridazin-3-yl]methyl}phenyl)carbamate], < 100 nM. To `Cn1cc(-n2ccc(=O)c(Cc3cccc(-c4ncc(OCC(O)C(F)(F)F)cn4)c3)n2)cn1` (racemic) [Example 364, rac-1-(1-methyl-1H-pyrazol-4-yl)-3-{3-[5-(3,3,3-trifluoro-2-hydroxypropoxy)pyrimidin-2-yl]benzyl}pyridazin-4(1H)-one] belongs < 100 nM; to `[2H]C([2H])([2H])n1cc(-n2ccc(=O)c(C(F)c3cccc(-c4ncc(OC([2H])([2H])C([2H])([2H])[2H])cn4)c3)n2)cn1` (racemic) [Example 658, rac-3-[[3-(5-Ethoxypyrimidin-2-yl)phenyl](fluoro)methyl]-1-(1-methyl-1H-pyrazol-4-yl)pyridazin-4(1H)-one-d8], < 100 nM.
